According to US9850283B2, “Macrocyclic inhibitors of the PD-1/PD-L1 and CD80(B7-1)/PD-L1 protein/protein interactions” (BRISTOL-MYERS SQUIBB COMPANY, priority 2013, dated 2017):
Starred links: 1 amine or outer side, 2 acyl side, 3 side chain; linkers in the order of their positions; H or OH if unused. Positions of bridges follow the written chain, without caps; N, C: chain ends. Non-standard residues stand in square brackets, D forms with d. Residues, ends and D or L forms follow the SMILES beside them. Tyr(3-Br) = N[C@@H](Cc1ccc(O)c(Br)c1)C(=O)O; X16 = O=C([C@@H]1CC[C@H](O)CN1[*:1])[*:2]; Bta = N[C@@H](Cc1csc2ccccc12)C(=O)O; Hyp = O=C(O)[C@@H]1C[C@@H](O)CN1; NMeNle = CCCC[C@H](NC)C(=O)O; NMeA = CN[C@@H](C)C(=O)O; Dab = NCC[C@H](N)C(=O)O; Dap = NC[C@H](N)C(=O)O; Sar = CNCC(=O)O

What was measured:
[1] = target: T1, LK35.2-hPD-L1 cells / PE-labeled PD-1-Ig (Homo sapiens, UniProt Q9NZQ7); test: LK35.2-hPD-L1 cell binding high-content screening assay; type: cell-based; conditions: cell binding assay, cell line not given; cluster symbol; read-out: CBA IC50 cluster
T1 construct: expressed in transfected cells; host or cells: LK35.2 mouse B cell line
T1 sequence (Q9NZQ7 19-290): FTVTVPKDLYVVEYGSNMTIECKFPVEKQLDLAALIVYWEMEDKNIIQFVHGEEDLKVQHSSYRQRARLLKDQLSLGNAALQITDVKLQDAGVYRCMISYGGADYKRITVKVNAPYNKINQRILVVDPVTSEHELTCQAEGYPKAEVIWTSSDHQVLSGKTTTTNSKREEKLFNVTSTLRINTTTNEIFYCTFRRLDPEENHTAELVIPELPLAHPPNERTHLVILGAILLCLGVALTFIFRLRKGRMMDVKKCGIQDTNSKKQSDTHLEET
How it was run: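 Using overnight-cultured LK35.2-hPD-L1 mouse B cells, compound was co-incubated with phycoerythrin-tagged human PD-1-Ig (final 1 nM) at 37 °C for one hour. Unbound label was removed by triple dPBS washing prior to high-content image acquisition and analysis.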

[2] = target: T2, Human PD-L1/PD-1 (Homo sapiens, UniProt Q9NZQ7); test: HTRF PD-1-Ig/PD-L1-His binding assay (human PD-L1); conditions: cluster symbol; read-out: HTRF IC50 cluster
T2 construct: made in house; host or cells: HEK293T
T2 sequence (Q9NZQ7 with tags, fused parts or gaps): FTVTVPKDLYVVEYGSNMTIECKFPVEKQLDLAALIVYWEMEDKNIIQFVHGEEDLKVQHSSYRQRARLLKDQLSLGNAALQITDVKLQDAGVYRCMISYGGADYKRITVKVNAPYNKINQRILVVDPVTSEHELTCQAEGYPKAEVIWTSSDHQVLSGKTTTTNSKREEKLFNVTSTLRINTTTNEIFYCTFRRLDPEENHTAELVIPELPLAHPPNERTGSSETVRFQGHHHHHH
How it was run: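 Soluble PD-1-Ig binding to PD-L1-His measured by HTRF in dPBS with 0.1% BSA and 0.05% Tween-20. Detection used europium cryptate anti-Ig antibody (1 nM final) and APC anti-His antibody (20 nM final) added on top of the binding reaction.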

Structure (SMILES) | IC50 [1] | IC50 [2]
CCCC[C@H]1C(=O)N(C)[C@@H](CCCC)C(=O)N[C@@H](CC(C)C)C(=O)N[C@H](C(=O)NCC(N)=O)CSCC(=O)N[C@@H](Cc2ccc(O)cc2)C(=O)N(C)[C@@H](C)C(=O)N[C@@H](CC(N)=O)C(=O)N2CCC[C@H]2C(=O)N[C@@H](Cc2cnc[nH]2)C(=O)N[C@@H](CC(C)C)C(=O)N2C[C@H](O)C[C@H]2C(=O)N[C@@H](Cc2c[nH]c3ccccc23)C(=O)N[C@@H](CO)C(=O)N[C@@H](Cc2c[nH]c3ccccc23)C(=O)N1C [Example 6025] | 0.158 to 4.71 nM | 0.385 to 6.74 nM
CCCC[C@H]1C(=O)N(C)[C@@H](CCCC)C(=O)N[C@@H](CC(C)C)C(=O)N[C@H](C(=O)NCC(N)=O)CSCC(=O)N[C@@H](Cc2ccc(O)cc2)C(=O)N(C)[C@@H](C)C(=O)N[C@@H](CC(=O)O)C(=O)N2CCC[C@H]2C(=O)N[C@@H](Cc2cnc[nH]2)C(=O)N[C@@H](CCC(=O)O)C(=O)N2C[C@H](O)C[C@H]2C(=O)N[C@@H](Cc2c[nH]c3ccccc23)C(=O)N[C@@H](CO)C(=O)N[C@@H](Cc2c[nH]c3ccccc23)C(=O)N1C [Example 6026] ({CH2CO}-Y[NMeA]DPHE[Hyp]WSW[NMeNle][NMeNle]LCG-NH2; thioether N-14) | 0.158 to 4.71 nM | 0.385 to 6.74 nM
CCCC[C@H]1C(=O)N(C)[C@@H](CCCC)C(=O)N[C@@H](CC(C)C)C(=O)N[C@H](C(=O)NCC(N)=O)CSCC(=O)N[C@@H](Cc2ccc(O)cc2)C(=O)N(C)[C@@H](C)C(=O)N[C@@H](CC(=O)O)C(=O)N2CCC[C@H]2C(=O)N[C@@H](Cc2cnc[nH]2)C(=O)N[C@@H](CC(C)C)C(=O)N2C[C@H](O)C[C@H]2C(=O)N[C@@H](Cc2c[nH]c3ccccc23)C(=O)N[C@@H](CCN)C(=O)N[C@@H](Cc2c[nH]c3ccccc23)C(=O)N1C [Example 6027] ({CH2CO}-Y[NMeA]DPHL[Hyp]W[Dab]W[NMeNle][NMeNle]LCG-NH2; thioether N-14) | 0.158 to 4.71 nM | 0.385 to 6.74 nM
CCCC[C@H]1C(=O)N(C)[C@@H](CCCC)C(=O)N[C@@H](CCCNC(=N)N)C(=O)N[C@H](C(=O)NCC(N)=O)CSCC(=O)N[C@@H](Cc2ccc(O)cc2)C(=O)N(C)[C@@H](C)C(=O)N[C@@H](CC(N)=O)C(=O)N2CCC[C@H]2C(=O)N[C@@H](CN)C(=O)N[C@@H](CC(N)=O)C(=O)N2C[C@H](O)C[C@H]2C(=O)N[C@@H](Cc2c[nH]c3ccccc23)C(=O)N[C@@H](CO)C(=O)N[C@@H](Cc2csc3ccccc23)C(=O)N1C [Example 6028] ({CH2CO}-Y[NMeA]NP[Dap]N[Hyp]WS[Bta][NMeNle][NMeNle]RCG-NH2; thioether N-14) | 0.158 to 4.71 nM | 6.76 to 30.3 nM
CCCC[C@H]1C(=O)N(C)[C@@H](COc2cccc(C)c2)C(=O)N[C@@H](CC(C)C)C(=O)N[C@H](C(=O)NCC(N)=O)CSCC(=O)N[C@@H](Cc2ccc(O)cc2)C(=O)N(C)[C@@H](C)C(=O)N[C@@H](CC(N)=O)C(=O)N2CCC[C@H]2C(=O)N[C@@H](CN)C(=O)N[C@@H](CC(C)C)C(=O)N2C[C@H](O)C[C@H]2C(=O)N[C@@H](Cc2c[nH]c3ccccc23)C(=O)N[C@@H](CCN)C(=O)N[C@@H](Cc2c[nH]c3ccccc23)C(=O)N1C [Example 6029] | 4.78 to 72.9 nM | 0.385 to 6.74 nM
CCCC[C@H]1C(=O)N(C)[C@@H](COc2cccc(C)c2)C(=O)N[C@@H](CCN)C(=O)N[C@H](C(=O)NCC(N)=O)CSCC(=O)N[C@@H](Cc2ccc(O)cc2)C(=O)N(C)[C@@H](C)C(=O)N[C@@H](CC(N)=O)C(=O)N2CCC[C@H]2C(=O)N[C@@H](CN)C(=O)N[C@@H](CCC(=O)O)C(=O)N2C[C@H](O)C[C@H]2C(=O)N[C@@H](Cc2c[nH]c3ccccc23)C(=O)N[C@@H](CO)C(=O)N[C@@H](Cc2c[nH]c3ccccc23)C(=O)N1C [Example 6030] | 4.78 to 72.9 nM | 0.385 to 6.74 nM
CCCC[C@H]1C(=O)N(C)[C@@H](COc2cccc(C)c2)C(=O)N[C@@H](CCN)C(=O)N[C@H](C(=O)NCC(N)=O)CSCC(=O)N[C@@H](Cc2ccc(O)cc2)C(=O)N(C)[C@@H](C)C(=O)N[C@@H](CC(=O)O)C(=O)N2CCC[C@H]2C(=O)N[C@@H](CN)C(=O)N[C@@H](CCC(=O)O)C(=O)N2C[C@H](O)C[C@H]2C(=O)N[C@@H](Cc2c[nH]c3ccccc23)C(=O)N[C@@H](CO)C(=O)N[C@@H](Cc2c[nH]c3ccccc23)C(=O)N1C [Example 6031] | 4.78 to 72.9 nM | 0.385 to 6.74 nM
CCCC[C@H]1C(=O)N(C)[C@@H](CCCC)C(=O)N[C@@H](CCCNC(=N)N)C(=O)N[C@H](C(=O)NCC(N)=O)CSCC(=O)N[C@@H](Cc2ccc(O)cc2)C(=O)N(C)[C@@H](C)C(=O)N[C@@H](CC(N)=O)C(=O)N2CCC[C@H]2C(=O)N[C@@H](CN)C(=O)N[C@@H](CC(C)C)C(=O)N2C[C@H](O)C[C@H]2C(=O)N[C@@H](Cc2c[nH]c3ccccc23)C(=O)N[C@@H](C(C)C)C(=O)N[C@@H](Cc2c[nH]c3ccccc23)C(=O)N1C [Example 6032] ({CH2CO}-Y[NMeA]NP[Dap]L[Hyp]WVW[NMeNle][NMeNle]RCG-NH2; thioether N-14) | 0.158 to 4.71 nM | 0.385 to 6.74 nM
CCCC[C@H]1C(=O)N(C)[C@@H](CCCC)C(=O)N[C@@H](CCCNC(=N)N)C(=O)N[C@H](C(=O)NCC(N)=O)CSCC(=O)N[C@@H](Cc2ccc(O)cc2)C(=O)N(C)[C@@H](C)C(=O)N[C@@H](CC(N)=O)C(=O)N2CCC[C@H]2C(=O)N[C@@H](CN)C(=O)N[C@@H](CC(C)C)C(=O)N2C[C@H](O)C[C@H]2C(=O)N[C@@H](Cc2c[nH]c3ccccc23)C(=O)N[C@@H](CC(N)=O)C(=O)N[C@@H](Cc2c[nH]c3ccccc23)C(=O)N1C [Example 6033] ({CH2CO}-Y[NMeA]NP[Dap]L[Hyp]WNW[NMeNle][NMeNle]RCG-NH2; thioether N-14) | 0.158 to 4.71 nM | 0.385 to 6.74 nM
CCCC[C@H]1C(=O)N(C)[C@@H](CCCC)C(=O)N[C@@H](CCCNC(=N)N)C(=O)N[C@H](C(=O)NCC(N)=O)CSCC(=O)N[C@@H](Cc2ccc(O)cc2)C(=O)N(C)[C@@H](C)C(=O)N[C@@H](CC(N)=O)C(=O)N2CCC[C@H]2C(=O)N[C@@H](CN)C(=O)N[C@@H](CC(C)C)C(=O)N2C[C@H](O)C[C@H]2C(=O)N[C@@H](Cc2c[nH]c3ccccc23)C(=O)N[C@@H](CC(C)C)C(=O)N[C@@H](Cc2c[nH]c3ccccc23)C(=O)N1C [Example 6034] ({CH2CO}-Y[NMeA]NP[Dap]L[Hyp]WLW[NMeNle][NMeNle]RCG-NH2; thioether N-14) | 0.158 to 4.71 nM | 0.385 to 6.74 nM
CCCC[C@H]1C(=O)N(C)[C@@H](CCCC)C(=O)N[C@@H](CCN)C(=O)N[C@H](C(=O)NCC(N)=O)CSCC(=O)N[C@@H](Cc2ccc(O)c(Br)c2)C(=O)N(C)[C@@H](C)C(=O)N[C@@H](CC(N)=O)C(=O)N2CCC[C@H]2C(=O)N[C@@H](Cc2cnc[nH]2)C(=O)N[C@@H](CC(C)C)C(=O)N2C[C@H](O)C[C@H]2C(=O)N[C@@H](Cc2c[nH]c3ccccc23)C(=O)N[C@@H](CCN)C(=O)N[C@@H](Cc2c[nH]c3ccccc23)C(=O)N1C [Example 6036] ({CH2CO}-[Tyr(3-Br)][NMeA]NPHL[Hyp]W[Dab]W[NMeNle][NMeNle][Dab]CG-NH2; thioether N-14) | 0.158 to 4.71 nM | 0.385 to 6.74 nM
CCCC[C@H]1C(=O)N(C)[C@@H](CCCC)C(=O)N[C@@H](CC(C)C)C(=O)N[C@H](C(=O)NCC(N)=O)CSCC(=O)N[C@@H](Cc2ccc(O)cc2)C(=O)N(C)[C@@H](C)C(=O)N[C@@H](CC(N)=O)C(=O)N2CCC[C@H]2C(=O)N[C@@H](CN)C(=O)N[C@@H](CC(C)C)C(=O)N2CCC[C@H]2C(=O)N[C@@H](Cc2c[nH]c3ccccc23)C(=O)N[C@@H](CCN)C(=O)N[C@@H](Cc2c[nH]c3ccccc23)C(=O)N1C [Example 6040] ({CH2CO}-Y[NMeA]NP[Dap]LPW[Dab]W[NMeNle][NMeNle]LCG-NH2; thioether N-14) | 0.158 to 4.71 nM | 0.385 to 6.74 nM
CCCC[C@H]1C(=O)N[C@@H](Cc2c[nH]c3ccccc23)C(=O)N[C@@H](CCN)C(=O)N[C@@H](Cc2c[nH]c3ccccc23)C(=O)N(C)[C@@H](CCCC)C(=O)N(C)[C@@H](CCCC)C(=O)N[C@@H](CC(C)C)C(=O)N[C@H](C(=O)NCC(N)=O)CSCC(=O)N[C@@H](Cc2ccc(O)cc2)C(=O)N(C)[C@@H](C)C(=O)N[C@@H](CC(N)=O)C(=O)N2CCC[C@H]2C(=O)N[C@@H](CN)C(=O)N[C@@H](CC(C)C)C(=O)N1C [Example 6041] ({CH2CO}-Y[NMeA]NP[Dap]L[NMeNle]W[Dab]W[NMeNle][NMeNle]LCG-NH2; thioether N-14) | 4.78 to 72.9 nM | 6.76 to 30.3 nM
CCCC[C@H]1C(=O)N(C)[C@@H](CCCC)C(=O)N[C@@H](CC(C)C)C(=O)N[C@H](C(=O)NCC(N)=O)CSCC(=O)N[C@@H](Cc2ccc(O)cc2)C(=O)N(C)[C@@H](C)C(=O)N[C@@H](CC(N)=O)C(=O)N2CCC[C@H]2C(=O)N[C@@H](CN)C(=O)N[C@@H](CC(C)C)C(=O)N2C[C@@H](O)CC[C@H]2C(=O)N[C@@H](Cc2c[nH]c3ccccc23)C(=O)N[C@@H](CCN)C(=O)N[C@@H](Cc2c[nH]c3ccccc23)C(=O)N1C [Example 6042] ({CH2CO}-Y[NMeA]NP[Dap]L[X16]W[Dab]W[NMeNle][NMeNle]LCG-NH2; thioether N-14) | 4.78 to 72.9 nM | 0.385 to 6.74 nM
CCCC[C@H]1C(=O)N(C)[C@@H](CCCC)C(=O)N[C@@H](CCN)C(=O)N[C@H](C(=O)NCC(N)=O)CSCC(=O)N[C@@H](Cc2ccc(O)c(Br)c2)C(=O)N(C)[C@@H](C)C(=O)N[C@@H](CC(N)=O)C(=O)N2CCC[C@H]2C(=O)N[C@@H](Cc2cnc[nH]2)C(=O)N[C@@H](CC(C)C)C(=O)N(C)CC(=O)N[C@@H](Cc2c[nH]c3ccccc23)C(=O)N[C@@H](CCN)C(=O)N[C@@H](Cc2c[nH]c3ccccc23)C(=O)N1C [Example 6043] ({CH2CO}-[Tyr(3-Br)][NMeA]NPHL[Sar]W[Dab]W[NMeNle][NMeNle][Dab]CG-NH2; thioether N-14) | 4.78 to 72.9 nM | 0.385 to 6.74 nM
